Our source for the IC50 values is publication PMC1198225, “Novel curcumin- and emodin-related compounds identified by in silico 2D/3D conformer screening induce apoptosis in tumor cells” (BMC Cancer, 2005).

One experiment deals with T1, recombinant PKD (Homo sapiens, UniProt Q15139).
T1 construct: gene PRKD1; commercial recombinant kinase (Upstate)
T1 sequence (Q15139 1-912): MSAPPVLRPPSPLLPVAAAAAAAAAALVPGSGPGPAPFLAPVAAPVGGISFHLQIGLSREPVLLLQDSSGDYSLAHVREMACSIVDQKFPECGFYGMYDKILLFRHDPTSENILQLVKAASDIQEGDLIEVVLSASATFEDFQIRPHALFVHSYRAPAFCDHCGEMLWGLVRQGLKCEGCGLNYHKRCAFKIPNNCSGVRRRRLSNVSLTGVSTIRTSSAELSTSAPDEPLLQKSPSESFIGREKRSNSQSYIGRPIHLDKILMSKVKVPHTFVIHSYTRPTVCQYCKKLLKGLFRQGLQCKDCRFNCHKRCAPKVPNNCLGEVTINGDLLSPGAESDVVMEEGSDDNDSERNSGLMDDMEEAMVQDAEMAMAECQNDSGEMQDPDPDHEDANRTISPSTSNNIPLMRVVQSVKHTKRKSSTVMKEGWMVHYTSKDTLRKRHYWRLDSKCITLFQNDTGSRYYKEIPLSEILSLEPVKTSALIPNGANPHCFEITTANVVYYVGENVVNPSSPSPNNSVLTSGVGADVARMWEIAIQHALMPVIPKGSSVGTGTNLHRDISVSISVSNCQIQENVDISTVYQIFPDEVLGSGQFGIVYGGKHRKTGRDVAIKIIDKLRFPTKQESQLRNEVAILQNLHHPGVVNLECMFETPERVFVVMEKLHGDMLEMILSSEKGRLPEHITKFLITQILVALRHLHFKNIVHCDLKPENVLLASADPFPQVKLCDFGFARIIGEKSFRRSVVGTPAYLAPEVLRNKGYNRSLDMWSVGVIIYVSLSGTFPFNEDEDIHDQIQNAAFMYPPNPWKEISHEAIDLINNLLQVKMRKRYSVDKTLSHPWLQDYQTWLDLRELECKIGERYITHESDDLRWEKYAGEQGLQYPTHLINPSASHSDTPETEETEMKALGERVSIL
The experiment can be described thus: [γ-32P]ATP phosphorylation of c-Jun, SDS-PAGE autoradiography, densitometry. It is filed as biochemical. An excerpt:
[γ-32P]ATP phosphorylation of c-Jun, SDS-PAGE autoradiography, densitometry on recombinant PKD

The next experiment deals with T2, Recombinant CK2 (2α2β) (Homo sapiens, UniProt P68400).
T2 construct: gene CSNK2A1; commercial recombinant holoenzyme (Calbiochem), alpha2beta2 tetramer; with Casein kinase II subunit beta
T2 sequence (P68400 whole entry): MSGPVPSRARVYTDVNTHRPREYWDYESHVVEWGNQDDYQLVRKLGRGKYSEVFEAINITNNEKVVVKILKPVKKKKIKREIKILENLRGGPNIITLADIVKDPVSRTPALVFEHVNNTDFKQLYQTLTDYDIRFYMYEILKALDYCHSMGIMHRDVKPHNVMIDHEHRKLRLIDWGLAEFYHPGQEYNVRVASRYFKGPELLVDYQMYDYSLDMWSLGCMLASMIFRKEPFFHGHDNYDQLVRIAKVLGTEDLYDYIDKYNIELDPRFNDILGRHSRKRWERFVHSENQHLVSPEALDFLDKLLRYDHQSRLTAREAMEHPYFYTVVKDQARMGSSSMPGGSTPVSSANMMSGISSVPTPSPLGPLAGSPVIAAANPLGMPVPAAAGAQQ
T2 sequence (P67870 2-215 partner): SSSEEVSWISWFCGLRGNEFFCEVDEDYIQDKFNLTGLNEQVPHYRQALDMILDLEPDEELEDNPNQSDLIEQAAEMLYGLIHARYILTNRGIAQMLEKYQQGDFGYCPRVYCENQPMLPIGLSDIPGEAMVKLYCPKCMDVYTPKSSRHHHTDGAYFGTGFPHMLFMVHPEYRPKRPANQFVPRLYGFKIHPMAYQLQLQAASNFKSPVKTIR
The experiment is described as above. It is filed as biochemical. The source says: [γ-32P]ATP phosphorylation of c-Jun, SDS-PAGE autoradiography, densitometry on Recombinant CK2 (2α2β)

Where two headings read alike, the source gives them in different places.

As for `O=C(NN=Cc1cc(Cl)cc(Cl)c1O)c1ccccn1` [BTB00363, 2-Pyridinecarboxylic acid, [(3,5-dichloro-2-hydroxyphenyl)methylene]hydrazide], the IC50 – broadly, the concentration needed to halve the response being measured – was determined as 118 µM at recombinant PKD (read-out: IC50 PKD) and 333 µM on Recombinant CK2 (2α2β) (read-out: IC50 CK2).

For `O=C1C=CC(=O)c2c1c(O)c1ccccc1c2O` [BTB14431, 9,10-dihydroxy-1,4-dihydroanthracene-1,4-dione], the results for the IC50 on recombinant PKD and on Recombinant CK2 (2α2β) were 68.9 µM and 6.4 µM, respectively.

In the case of `COc1ccc2c(=O)c3ccccc3n(C)c2c1` [JFD02836, 3-methoxy-10-methyl-9,10-dihydro-9-acridinone], the values for the IC50 at recombinant PKD and at Recombinant CK2 (2α2β) were 39.7 µM and 19.9 µM, respectively.

As to `O=C1C(=CO)c2ccccc2-c2ccccc21` [JFD03665, 10-(hydroxymethylene)phenanthren-9(10H)-one], the IC50 is 155 µM on recombinant PKD and 5.9 µM at Recombinant CK2 (2α2β).

Consider `Oc1cc(O)cc(/C=C/c2ccc(O)c(O)c2)c1` [Piceatannol], for which the IC50 on recombinant PKD (read-out: IC50 PKD) stood at 0.5 µM; at Recombinant CK2 (2α2β) (read-out: IC50 CK2), 2.5 µM.

In the case of `Nc1c2c(nc3cccc(F)c13)OCCC2` [SEW04213, 6-fluoro-3,4-dihydro-2H-pyrano [2,3-b]quinolin-5-amine], the figures for the 50% inhibitory concentration (IC50) on recombinant PKD and on Recombinant CK2 (2α2β) were 186 µM and 37.9 µM, respectively.
